Patent US10758534B2 (Vertex Pharmaceuticals Incorporated, priority 2014, dated 2020)
Values belong to the molecule of their own block, whether it stands above or below them.

Target: T1, F508del (Homo sapiens, UniProt P13569, DEL508-508)
T1 construct: expressed in transfected cells
Test: Protocol 1: membrane potential optical assay (FLIPR III, voltage sensing dye), identification of potentiator compounds
Format: cell-based
Conditions: Table 3, compounds of Table 1
Summary of the method: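 Membrane potential in forskolin-activated, temperature-rescued F508del NIH 3T3 cells is followed with a voltage-sensing dye on FLIPR III. A chloride ion gradient created at the single addition step provides the driving force, after prior compound treatment.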

T1 sequence (P13569 with tags, fused parts or gaps DEL508-508): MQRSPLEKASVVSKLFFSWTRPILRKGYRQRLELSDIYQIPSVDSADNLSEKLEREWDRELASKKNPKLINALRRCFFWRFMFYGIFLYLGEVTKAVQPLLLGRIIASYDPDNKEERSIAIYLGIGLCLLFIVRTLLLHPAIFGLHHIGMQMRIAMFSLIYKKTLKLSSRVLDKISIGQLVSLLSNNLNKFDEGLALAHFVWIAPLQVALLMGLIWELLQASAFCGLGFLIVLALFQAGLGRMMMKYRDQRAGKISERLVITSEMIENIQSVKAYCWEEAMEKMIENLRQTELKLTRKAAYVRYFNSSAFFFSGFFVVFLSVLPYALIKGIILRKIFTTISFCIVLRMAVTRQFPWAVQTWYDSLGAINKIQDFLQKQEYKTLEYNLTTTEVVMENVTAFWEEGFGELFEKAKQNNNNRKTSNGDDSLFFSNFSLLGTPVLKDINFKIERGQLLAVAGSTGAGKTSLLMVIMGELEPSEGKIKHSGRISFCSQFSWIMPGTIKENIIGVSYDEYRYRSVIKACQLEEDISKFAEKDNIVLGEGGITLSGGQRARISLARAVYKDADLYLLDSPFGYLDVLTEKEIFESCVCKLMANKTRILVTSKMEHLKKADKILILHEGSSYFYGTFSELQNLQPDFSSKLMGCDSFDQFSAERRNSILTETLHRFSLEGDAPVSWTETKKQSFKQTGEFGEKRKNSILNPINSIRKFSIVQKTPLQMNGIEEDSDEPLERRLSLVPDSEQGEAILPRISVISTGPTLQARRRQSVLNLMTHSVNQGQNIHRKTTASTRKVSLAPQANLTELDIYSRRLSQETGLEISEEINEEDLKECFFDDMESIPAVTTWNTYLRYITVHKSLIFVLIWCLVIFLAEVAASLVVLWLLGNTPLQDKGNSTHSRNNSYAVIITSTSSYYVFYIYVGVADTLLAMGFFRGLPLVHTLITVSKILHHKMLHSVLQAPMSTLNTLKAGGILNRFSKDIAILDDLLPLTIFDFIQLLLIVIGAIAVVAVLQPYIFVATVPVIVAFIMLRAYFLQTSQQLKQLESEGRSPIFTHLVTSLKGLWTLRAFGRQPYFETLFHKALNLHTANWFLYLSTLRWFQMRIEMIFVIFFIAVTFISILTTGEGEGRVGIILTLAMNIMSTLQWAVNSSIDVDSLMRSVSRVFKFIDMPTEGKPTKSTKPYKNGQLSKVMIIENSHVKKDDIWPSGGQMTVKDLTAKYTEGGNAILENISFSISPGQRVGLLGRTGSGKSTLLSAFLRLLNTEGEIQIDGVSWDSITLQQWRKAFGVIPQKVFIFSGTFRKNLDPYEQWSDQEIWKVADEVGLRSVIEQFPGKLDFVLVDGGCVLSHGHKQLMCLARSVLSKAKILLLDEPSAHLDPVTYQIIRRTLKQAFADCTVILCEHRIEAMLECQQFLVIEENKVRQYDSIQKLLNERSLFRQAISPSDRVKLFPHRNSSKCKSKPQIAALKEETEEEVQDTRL

SMILES: CC1CN(c2ncccc2C(=O)NS(=O)(=O)c2cccc(OC3CCCCC3)n2)C(C)(C)C1 (stereo not drawn) [Compound 1908, N—[[6-(cyclohexoxy)-2-pyridyl]sulfonyl]-2-(2,2,4-trimethylpyrrolidin-1-yl)pyridine-3-carboxamide]
- EC30: +++ (“+++” means <3 uM)

SMILES: CC1CN(c2ncccc2C(=O)NS(=O)(=O)c2cccc(Nc3ccc4c(c3)CCC4)n2)C(C)(C)C1 (stereo not drawn) [Compound 1909, N—[[6-(indan-5-ylamino)-2-pyridyl]sulfonyl]-2-(2,2,4-trimethylpyrrolidin-1-yl)pyridine-3-carboxamide]
- EC30: +++ (“+++” means <3 uM)

SMILES: CC(C)C(C)c1ccc(C(=O)NS(=O)(=O)c2cccnc2N)c(N2C[C@@H](C)CC2(C)C)n1 (stereo partly drawn) [Compound 1911, N-[(2-amino-3-pyridyl)sulfonyl]-6-(1,2-dimethylpropyl)-2-[(4S)-2,2,4-trimethylpyrrolidin-1-yl]pyridine-3-carboxamide]
- EC30: +++ (“+++” means <3 uM)

SMILES: CC(C)COc1cnn(-c2ccc(C(=O)NS(=O)(=O)c3ccccc3)c(N3C[C@@H](C)CC3(C)C)n2)c1 [Compound 1912, N-(benzenesulfonyl)-6-(4-isobutoxypyrazol-1-yl)-2-[(4S)-2,2,4-trimethylpyrrolidin-1-yl]pyridine-3-carboxamide]
- EC30: +++ (“+++” means <3 uM)

SMILES: CC1CN(c2ncc(-c3cccc(OC4CCCC4)c3)cc2C(=O)NS(=O)(=O)c2cccc(N)n2)C(C)(C)C1 (stereo not drawn) [Compound 1918, N-[(6-amino-2-pyridyl)sulfonyl]-5-[3-(cyclopentoxy)phenyl]-2-(2,2,4-trimethylpyrrolidin-1-yl)pyridine-3-carboxamide]
- EC30: +++ (“+++” means <3 uM)

SMILES: CC1CN(c2ncccc2C(=O)NS(=O)(=O)c2cccc(OC(C)C3CCCCC3)n2)C(C)(C)C1 (stereo not drawn) [Compound 1919, N—[[6-(1-cyclohexylethoxy)-2-pyridyl]sulfonyl]-2-(2,2,4-trimethylpyrrolidin-1-yl)pyridine-3-carboxamide]
- EC30: +++ (“+++” means <3 uM)

SMILES: CCOc1ccc(Oc2cccc(S(=O)(=O)NC(=O)c3cccnc3N3CC(C)CC3(C)C)n2)cc1 (stereo not drawn) [Compound 1924, N—[[6-(4-ethoxyphenoxy)-2-pyridyl]sulfonyl]-2-(2,2,4-trimethylpyrrolidin-1-yl)pyridine-3-carboxamide]
- EC30: +++ (“+++” means <3 uM)

SMILES: CC1CN(c2ncccc2C(=O)NS(=O)(=O)c2cccc(Oc3cccc(C(C)(C)C)c3)n2)C(C)(C)C1 (stereo not drawn) [Compound 1926, N—[[6-(3-tert-butylphenoxy)-2-pyridyl]sulfonyl]-2-(2,2,4-trimethylpyrrolidin-1-yl)pyridine-3-carboxamide]
- EC30: +++ (“+++” means <3 uM)

SMILES: CC(C)COc1cc(F)cc(-c2ccc(C(=O)NS(=O)(=O)c3cccc(N)n3)c(N3CCC3(C)C)n2)c1 [Compound 1928, N-[(6-amino-2-pyridyl)sulfonyl]-2-(2,2-dimethylazetidin-1-yl)-6-(3-fluoro-5-isobutoxy-phenyl)pyridine-3-carboxamide]
- EC30: ++ (“++” means between 3 uM and 10 uM)

The next lines start with the values.

- EC30: +++ (“+++” means <3 uM)
SMILES: Cc1ccc(-c2ccc(C(=O)NS(=O)(=O)c3cccc(N)n3)c(N3C[C@@H](C)CC3(C)C)n2)c(F)c1 [Compound 1910, N-[(6-amino-2-pyridyl)sulfonyl]-6-(2-fluoro-4-methyl-phenyl)-2-[(4S)-2,2,4-trimethylpyrrolidin-1-yl]pyridine-3-carboxamide]

- EC30: +++ (“+++” means <3 uM)
SMILES: COc1cc(F)c(-c2ccc(C(=O)NS(=O)(=O)c3ccc[nH]c3=O)c(N3C[C@@H](C)CC3(C)C)n2)cc1F [Compound 1913, 6-(2,5-difluoro-4-methoxy-phenyl)-N-[(2-oxo-1H-pyridin-3-yl)sulfonyl]-2-[(4S)-2,2,4-trimethylpyrrolidin-1-yl]pyridine-3-carboxamide]

- EC30: +++ (“+++” means <3 uM)
SMILES: COc1cc(-c2ccc(C(=O)NS(=O)(=O)c3ccc[nH]c3=O)c(N3C[C@@H](C)CC3(C)C)n2)cc(F)c1F [Compound 1914, 6-(3,4-difluoro-5-methoxy-phenyl)-N-[(2-oxo-1H-pyridin-3-yl)sulfonyl]-2-[(4S)-2,2,4-trimethylpyrrolidin-1-yl]pyridine-3-carboxamide]

- EC30: +++ (“+++” means <3 uM)
SMILES: CCN(CC)c1ncc(-c2ccc(C(=O)NS(=O)(=O)c3cccc(N)n3)c(N3C[C@@H](C)CC3(C)C)n2)cc1C [Compound 1915, N-[(6-amino-2-pyridyl)sulfonyl]-6-[6-(diethylamino)-5-methyl-3-pyridyl]-2-[(4S)-2,2,4-trimethylpyrrolidin-1-yl]pyridine-3-carboxamide]

- EC30: +++ (“+++” means <3 uM)
SMILES: CCCC/C=C/c1cnc(N2CC(C)CC2(C)C)c(C(=O)NS(=O)(=O)c2cccc(N)n2)c1 (stereo not drawn) [Compound 1916, N-[(6-amino-2-pyridyl)sulfonyl]-5-[(E)-hex-1-enyl]-2-(2,2,4-trimethylpyrrolidin-1-yl)pyridine-3-carboxamide]

- EC30: +++ (“+++” means <3 uM)
SMILES: CC1CN(c2ncccc2C(=O)NS(=O)(=O)c2cccc(OC(C)c3ccccc3)n2)C(C)(C)C1 (stereo not drawn) [Compound 1917, N—[[6-(1-phenylethoxy)-2-pyridyl]sulfonyl]-2-(2,2,4-trimethylpyrrolidin-1-yl)pyridine-3-carboxamide]

- EC30: ++ (“++” means between 3 uM and 10 uM)
SMILES: COC1CC=C(c2cnc(N3CC(C)CC3(C)C)c(C(=O)NS(=O)(=O)c3cccc(N)n3)c2)CC1 (stereo not drawn) [Compound 1920, N-[(6-amino-2-pyridyl)sulfonyl]-5-(4-methoxycyclohexen-1-yl)-2-(2,2,4-trimethylpyrrolidin-1-yl)pyridine-3-carboxamide]

- EC30: +++ (“+++” means <3 uM)
SMILES: CC1CN(c2ncc(-c3ccccc3C(F)(F)F)cc2C(=O)NS(=O)(=O)c2cccc(N)n2)C(C)(C)C1 (stereo not drawn) [Compound 1921, N-[(6-amino-2-pyridyl)sulfonyl]-5-[2-(trifluoromethyl)phenyl]-2-(2,2,4-trimethylpyrrolidin-1-yl)pyridine-3-carboxamide]

- EC30: +++ (“+++” means <3 uM)
SMILES: Cc1ccc(-c2ccc(C(=O)NS(=O)(=O)c3cccc(N)n3)c(N3C[C@@H](C)CC3(C)C)n2)cc1F [Compound 1922, N-[(6-amino-2-pyridyl)sulfonyl]-6-(3-fluoro-4-methyl-phenyl)-2-[(4S)-2,2,4-trimethylpyrrolidin-1-yl]pyridine-3-carboxamide]

- EC30: ++ (“++” means between 3 uM and 10 uM)
SMILES: Cc1cc(-c2ccc(C(=O)NS(=O)(=O)c3cccnc3N)c(N3C[C@@H](C)CC3(C)C)n2)cc(C)c1O [Compound 1923, N-[(2-amino-3-pyridyl)sulfonyl]-6-(4-hydroxy-3,5-dimethyl-phenyl)-2-[(4S)-2,2,4-trimethylpyrrolidin-1-yl]pyridine-3-carboxamide]

- EC30: +++ (“+++” means <3 uM)
SMILES: C[C@@H]1CN(c2nc(-c3cccc(F)c3)ccc2C(=O)NS(=O)(=O)c2ccc[nH]c2=O)C(C)(C)C1 [Compound 1925, 6-(3-fluorophenyl)-N-[(2-oxo-1H-pyridin-3-yl)sulfonyl]-2-[(4S)-2,2,4-trimethylpyrrolidin-1-yl]pyridine-3-carboxamide]

- EC30: +++ (“+++” means <3 uM)
SMILES: COc1cccc(-c2ccc(C(=O)NS(=O)(=O)c3ccc[nH]c3=O)c(N3C[C@@H](C)CC3(C)C)n2)c1 [Compound 1927, 6-(3-methoxyphenyl)-N-[(2-oxo-1H-pyridin-3-yl)sulfonyl]-2-[(4S)-2,2,4-trimethylpyrrolidin-1-yl]pyridine-3-carboxamide]
